Target: T1, PLTP (Homo sapiens, UniProt P55058)
T1 construct: from tissue
Assay: Determination of PLTP inhibition activity (radiolabelled phospholipid liposome to HDL transfer with plasma)
Type: biochemical
Details: not given
Procedure: 30 μl (about 1000 cpm/μl) phospholipids liposome, 30 μl HDL ([…]), 337 μl TSE and 3 μl plasma were mixed, incubated in 37° C. water-bath for 1 hour, and then added 300 μl of a settling solution (50 ml solution preparation: 5.36 ml 5N NaCl, 9.075 ml 2M MnCl2 and 46 mg liver phospholipid were mixed, added water to 50 ml), the solution was stood at room temperature for 10 minutes, rotated at high speed for 10 minutes (to remove phospholipids liposome), 500 μl of the supernatant was sampled and counted. PLTP activity (cpm/h/3 μl)=sample cpm-background cpm.

T1 sequence (P55058 18-493, species assumed): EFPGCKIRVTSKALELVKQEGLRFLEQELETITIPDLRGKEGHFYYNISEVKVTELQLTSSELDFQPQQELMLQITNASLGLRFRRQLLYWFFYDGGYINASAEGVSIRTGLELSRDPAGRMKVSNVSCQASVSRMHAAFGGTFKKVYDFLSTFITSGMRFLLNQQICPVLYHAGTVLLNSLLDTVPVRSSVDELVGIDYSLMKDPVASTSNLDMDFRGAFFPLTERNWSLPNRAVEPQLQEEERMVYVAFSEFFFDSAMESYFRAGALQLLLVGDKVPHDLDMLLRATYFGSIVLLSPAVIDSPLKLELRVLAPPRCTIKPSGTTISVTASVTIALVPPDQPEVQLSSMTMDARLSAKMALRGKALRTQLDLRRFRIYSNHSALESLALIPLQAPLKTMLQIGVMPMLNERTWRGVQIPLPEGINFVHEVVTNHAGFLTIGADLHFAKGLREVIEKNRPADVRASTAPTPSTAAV

IC50 [µM]	SMILES
75	O=C(Nc1nc(-c2ccccc2)c(Cc2ccc([N+](=O)[O-])cc2)s1)c1ccc(O)c(O)c1 [Example 32, 3,4-dihydroxy-N-[5-(4-nitro-benzyl)-4-phenyl-thiazol-2-yl]-benzamide]

Same assay, conditions: Concentration of compounds 250 μM; read-out: PLTP inhibition activity Inhibition rate(%)

inhibition at 250 µM [%]	SMILES
100	O=C(Nc1nc(-c2ccccc2)c(Cc2ccc([N+](=O)[O-])cc2)s1)c1ccc(O)c(O)c1 [Example 32, 3,4-dihydroxy-N-[5-(4-nitro-benzyl)-4-phenyl-thiazol-2-yl]-benzamide]

Target: T2, CETP (Homo sapiens, UniProt P11597)
T2 sequence (P11597 18-493): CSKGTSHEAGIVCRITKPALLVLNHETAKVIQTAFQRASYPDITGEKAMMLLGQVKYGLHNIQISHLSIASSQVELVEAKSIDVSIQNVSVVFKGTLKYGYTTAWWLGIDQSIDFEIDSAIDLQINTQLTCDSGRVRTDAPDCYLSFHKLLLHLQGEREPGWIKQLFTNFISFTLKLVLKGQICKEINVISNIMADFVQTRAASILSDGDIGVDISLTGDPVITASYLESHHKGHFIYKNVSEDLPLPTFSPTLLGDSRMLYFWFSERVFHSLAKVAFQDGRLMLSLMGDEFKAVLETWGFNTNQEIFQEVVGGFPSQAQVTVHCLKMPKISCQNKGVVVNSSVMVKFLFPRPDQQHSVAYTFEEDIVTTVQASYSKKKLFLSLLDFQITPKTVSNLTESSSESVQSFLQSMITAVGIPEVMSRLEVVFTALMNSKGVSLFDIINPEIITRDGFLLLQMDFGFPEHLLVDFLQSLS
Assay: Determination of CETP inhibition activity (fluorescent donor/acceptor transfer)
Type: biochemical
Details: Concentration of compounds 500 μM; read-out: CETP inhibition activity Inhibition rate(%)
Procedure: A mixture containing 3 μl of a donor, 9 μl of an acceptor (250 μg protein), 3 μl of CETP solution and 85 μl of an analytic buffer, 10 mM Tris, 0.15 M NaCl and 2 mM EDTA, pH 7.4 was incubated at 37° C. for 0.5 hours, the fluorescence intensity was determined on Victor 3 double illuminometer/fluorescence counter (Perkin Elmer) carrying […] light wave length.

inhibition at 500 µM [%]	SMILES
0	O=C(Nc1nc(-c2ccccc2)c(Cc2ccc([N+](=O)[O-])cc2)s1)c1ccc(O)c(O)c1 [Example 32, 3,4-dihydroxy-N-[5-(4-nitro-benzyl)-4-phenyl-thiazol-2-yl]-benzamide]

Tested on: not given
Assay: not given
Details: not given

SMILES	melting point [°C]
Nc1nc(-c2ccc(F)cc2)c(Cc2ccc([N+](=O)[O-])cc2)s1 [Example 9, 4-(4-fluoro-phenyl)-5-(4-nitro-benzyl)-thiazol-2-ylamine]	217 to 218
COc1ccc(-c2nc(NC(=O)c3ccc(C#N)cc3)sc2Cc2ccccc2)cc1 [Example 13, N-[5-benzyl-4-(4-methoxy-phenyl)-thiazol-2-yl]-4-cyano-benzamide]	194 to 196
Nc1nc(-c2ccc(O)cc2)c(Cc2ccccc2)s1 [Example 2, 5-benzyl-4-(4-hydroxy-phenyl)-thiazol-2-ylamine]	170 to 172
COc1ccc(-c2nc(NC(=O)c3ccccc3)sc2Cc2ccccc2)cc1 [Example 3, N-[5-benzyl-4-(4-methoxy-phenyl)-thiazol-2-yl]-benzamide]	146 to 147
O=C(Nc1nc(-c2ccc(F)cc2)c(Cc2ccc([N+](=O)[O-])cc2)s1)c1cc(F)cc(F)c1 [Example 18, 3,5-difluoro-N-[4-(4-fluoro-phenyl)-5-(4-nitro-benzyl)-thiazol-2-yl]-benzamide]	216 to 218
COc1ccc(-c2nc(NC(=O)c3ccc(Cl)cc3)sc2Cc2ccccc2)cc1 [Example 5, N-[5-benzyl-4-(4-methoxy-phenyl)-thiazol-2-yl]-4-chloro-benzamide]	182 to 183
COc1ccc(-c2nc(NC(=O)c3ccc(C#N)cc3)sc2Cc2ccc([N+](=O)[O-])cc2)cc1 [Example 14, 4-cyano-N-[4-(4-methoxy-phenyl)-5-(4-nitro-benzyl)-thiazol-2-yl]-benzamide]	190 to 192
COc1ccc(-c2nc(N)sc2Cc2ccc([N+](=O)[O-])cc2)cc1 [Example 6, 4-(4-methoxy-phenyl)-5-(4-nitro-benzyl)-thiazol-2-ylamine]	209 to 210
COc1ccc(-c2nc(NC(=O)c3cc(F)cc(F)c3)sc2Cc2ccc([N+](=O)[O-])cc2)cc1 [Example 17, 3,5-difluoro-N-[4-(4-methoxy-phenyl)-5-(4-nitro-benzyl)-thiazol-2-yl]-benzamide]	189 to 190
COc1ccc(-c2nc(NC(=O)c3cc(F)cc(F)c3)sc2Cc2ccc(F)cc2)cc1 [Example 22, 3,5-difluoro-N-[5-(4-fluoro-benzyl)-4-(4-methoxy-phenyl)-thiazol-2-yl]-benzamide]	175 to 176
O=C(Nc1nc(-c2ccc(F)cc2)c(Cc2ccc([N+](=O)[O-])cc2)s1)c1ccc(F)cc1 [Example 11, 4-fluoro-N-[4-(4-fluoro-phenyl)-5-(4-nitro-benzyl)-thiazol-2-yl]-benzamide]	120 to 122
N#Cc1ccc(C(=O)Nc2nc(-c3ccc(F)cc3)c(Cc3ccc([N+](=O)[O-])cc3)s2)cc1 [Example 15, 4-cyano-N-[4-(4-fluoro-phenyl)-5-(4-nitro-benzyl)-thiazol-2-yl]-benzamide]	244 to 245
COc1ccc(-c2nc(NC(=O)c3ccc(F)cc3)sc2Cc2ccccc2)cc1 [Example 4, N-[5-benzyl-4-(4-methoxy-phenyl)-thiazol-2-yl]-4-fluoro-benzamide]	164 to 165
COc1ccc(C(=O)Nc2nc(-c3ccc(F)cc3)c(Cc3ccc([N+](=O)[O-])cc3)s2)cc1OC [Example 20, N-[4-(4-fluoro-phenyl)-5-(4-nitro-benzyl)-thiazol-2-yl]-3,4-dimethoxy-benzamide]	128 to 129

Continued, values first:

melting point [°C]	SMILES
254 to 255	O=C(Nc1nc(-c2ccc(O)cc2)c(Cc2ccccc2)s1)c1ccc(O)cc1 [Example 46, N-[5-benzyl-4-(4-hydroxy-phenyl)-thiazol-2-yl]-4-hydroxy-benzamide]
196 to 197	COc1ccc(-c2nc(NC(=O)c3ccc(OC)cc3OC)sc2Cc2ccccc2)cc1 [Example 35, N-[5-benzyl-4-(4-methoxy-phenyl)-thiazol-2-yl]-2,4-dimethoxy-benzamide]
279 to 280	O=C(Nc1nc(-c2ccc(O)cc2)c(Cc2ccccc2)s1)c1ccccc1O [Example 39, N-[5-benzyl-4-(4-hydroxy-phenyl)-thiazol-2-yl]-2-hydroxy-benzamide]
191 to 192	COc1ccc(-c2nc(NC(=O)c3ccc(C#N)cc3)sc2Cc2ccc(F)cc2)cc1 [Example 25, 4-cyano-N-[5-(4-fluoro-benzyl)-4-(4-methoxy-phenyl)-thiazol-2-yl]-benzamide]
58 to 59	COc1ccc(C(=O)Nc2nc(-c3ccc(OC)cc3)c(Cc3ccccc3)s2)cc1 [Example 27, N-[5-benzyl-4-(4-methoxy-phenyl)-thiazol-2-yl]-4-methoxy-benzamide]
105 to 106	COc1ccc(-c2nc(NC(=O)c3cc(OC)c(OC)c(OC)c3)sc2C)cc1 [Example 53, 3,4,5-trimethoxy-N-[4-(4-methoxy-phenyl)-5-methyl-thiazol-2-yl]-benzamide]
197 to 198	CCCCc1sc(NC(=O)c2cc(OC)c(OC)c(OC)c2)nc1-c1ccc(OC)cc1 [Example 64, N-[5-n-butyl-4-(4-methoxy-phenyl)-thiazol-2-yl]-3,4,5-trimethoxy-benzamide]
193 to 194	COc1ccc(-c2nc(NC(=O)c3cc(OC)c(OC)c(OC)c3)sc2CC2CCCCC2)cc1 [Example 50]
157 to 158	COc1ccc(-c2nc(NC(=O)c3cc(OC)c(OC)c(OC)c3)sc2Cc2ccccc2)cc1 [Example 37, N-[5-benzyl-4-(4-methoxy-phenyl)-thiazol-2-yl]-3,4,5-trimethoxy-benzamide]
215 to 216	Nc1nc(-c2ccccc2)c(Cc2ccc([N+](=O)[O-])cc2)s1 [Example 26, 5-(4-nitro-benzyl)-4-phenyl-thiazol-2-ylamine]
152 to 153	COc1ccc(-c2nc(NC(=O)c3cc(OC)cc(OC)c3)sc2Cc2ccccc2)cc1 [Example 43, N-[5-benzyl-4-(4-methoxy-phenyl)-thiazol-2-yl]-3,5-dimethoxy-benzamide]
142 to 143	COc1ccc(-c2nc(NC(=O)CCc3ccc(OC)c(OC)c3)sc2Cc2ccccc2)cc1 [Example 68, N-[5-benzyl-4-(4-methoxy-phenyl)-thiazol-2-yl]-3-(3,4-dimethoxy-phenyl)-propanamide]
182 to 183	COc1ccc(-c2nc(N(S(=O)(=O)c3ccc(C)cc3)S(=O)(=O)c3ccc(C)cc3)sc2Cc2ccccc2)cc1 [Example 67, N-[5-benzyl-4-(4-methoxy-phenyl)-thiazol-2-yl]-N-p-tolylsulfonyl-p-tolylsulfonamide]
150 to 151	CCCCc1sc(NC(=O)c2ccc(OC)c(OC)c2)nc1-c1ccc(OC)cc1 [Example 63, N-[5-n-butyl-4-(4-methoxy-phenyl)-thiazol-2-yl]-3,4-dimethoxy-benzamide]
78 to 79	COc1ccc(-c2nc(NC(=O)c3cc(OC)c(OC)c(OC)c3)sc2CCc2ccccc2)cc1 [Example 59, 3,4,5-trimethoxy-N-[4-(4-methoxy-phenyl)-5-phenylethyl-thiazol-2-yl]-benzamide]
262 to 263	O=C(Nc1nc(-c2ccc(O)cc2)c(Cc2ccccc2)s1)c1cc(O)cc(O)c1 [Example 45, N-[5-benzyl-4-(4-hydroxy-phenyl)-thiazol-2-yl]-3,5-dihydroxy-benzamide]
171 to 172	COc1ccc(-c2nc(NC(=O)c3ccc(OC)c(OC)c3)sc2CC2CCCCC2)cc1 [Example 48, N-[5-cyclohexylmethyl-4-(4-methoxy-phenyl)-thiazol-2-yl]-3,4-dimethoxy-benzamide]
140 to 142	COc1ccc(-c2nc(NC(=O)c3ccc(OC)c(OC)c3)sc2Cc2ccc(F)cc2)cc1 [Example 30, N-[5-(4-fluoro-benzyl)-4-(4-methoxy-phenyl)-thiazol-2-yl]-3,4-dimethoxy-benzamide]
136 to 137	COc1ccc(-c2nc(N(C(=O)c3ccc(OC)c(OC)c3)C(=O)c3ccc(OC)c(OC)c3)sc2Cc2ccc(F)cc2)cc1 [Example 24]
71 to 72	COc1ccc(-c2nc(NC(=O)c3cccc(OC)c3)sc2Cc2ccccc2)cc1 [Example 42, N-[5-benzyl-4-(4-methoxy-phenyl)-thiazol-2-yl]-3-methoxy-benzamide]

Source: patent US8053581B2, “Trisubstituted thiazole compounds, preparations methods, pharmaceutical compositions and medicals uses thereof” (Institute of Pharmacology and Toxicology Academy of …, priority 2006, dated 2011)
